[invAb] = inverted abasic unit; m = 2'-O-methyl; r = 2'-OH (RNA); f = 2'-fluoro
System: NGFβ mRNA
Experiment: NGFβ mRNA knock-down in Calu-1 cells (RNAiMax transfection, Taqman RT-PCR)
Assay type: cell-based, human
Settings: human Calu-1 cells, 10 nM siNA, 24 hrs post-transfection, relative to non-targeting control, normalized to GAPDH
Method: Calu-1 (human; ATCC cat# HTB-54): Cells were cultured at 37° C. in the presence of 5% CO2 and grown in McCoy's 5a medium supplemented with fetal bovine serum at a final concentration of 10% and 100 μg/mL of streptomycin and 100 U/mL penicillin.
All transfections were performed using RNAiMax (Invitrogen Cat# 13778-150) as per the manufacturer's instructions.
Cells were plated in all wells of a tissue-culture treated, 96-well plate at a final count of 5,000 cells/well in […], of appropriate culture media. Cells were cultured for 24 hours after plating at 37° C. in the presence of 5% CO2.
After 24 hours, complexes containing siNA and RNAiMax were created as follows: A solution of RNAiMax diluted 33-fold in OPTI-MEM was prepared. In parallel, solutions of the siNAs for testing were prepared to a final concentration of 120 nM in OPTI-MEM. After incubation of RNAiMax/OPTI-MEM solution at room temperature for 5 min, an equal volume of the siRNA solution and the RNAiMax solution were added together for each of the siNAs.
This solution was incubated at room temperature for 20 minutes. After incubation, 20 uL of the solution was added to each of the relevant wells.
The final concentration of siNA in each well was 10 nM and the final volume of RNAiMax in each well was 0.3u1.
The time of incubation with the RNAiMax-siNA complexes was 24 hours, unless otherwise indicated. There was no change in media between the transfection and harvesting of the cells unless otherwise indicated.
Dose response curves were carried out in a similar fashion in 96-well plates, while maintaining a constant amount of RNAiMax in each transfection.
RNA was extracted from a 96-well plate using the TaqMan® Gene Expression Cells-to-CT™ Kit (Cat# 4399002) with a modified protocol. Briefly, a 60 uL (1 plate) or 110 uL (2 plates) of the Lysis Solution with DNase I was dispensed into each well of the Lysis Buffer Plate (twin.tec full skirt plate). The lysis buffer and stop plates were stored at 4° C. until the cells were washed.
The plate was spun at 1100 rpm for 5 minutes. The culture medium was aspirated and discarded from the wells of the culture plate. The lysis was performed automatically using a BioMek FX instrument and method. After the Biomek method was completed, the lysis plate was incubated for 2 min. at room temperature. The lysis plate can be stored for 2 hours at 4° C., or at −20° C. or −80° C. for two months.
Each well of the reverse transcription plate required 10 uL of 2× reverse transcriptase Buffer, luL of 20× reverse transcription enzyme and 2 uL of nuclease-free water. The reverse transcription master mix was prepared by mixing 2× reverse transcription buffer, 20× reverse transcription enzyme mix, and nuclease-free water. 13 uL of the reverse transcription master mix was dispensed into each well of the reverse transcription plate (semi-skirted). A separate reverse transcription plate was prepared for each cell plate. The plate was loaded onto a Biomek NX or Biomek FX Dual-96 and the Biomek method was run. The program is programmed to automatically added 7 uL of lysate from the cell lysis procedure described above into each well of the reverse transcription plate. The plate is sealed and spun on a centrifuge (1000 rpm for 30 seconds) to settle the contents to the bottom of the reverse transcription plate. The plate is placed in a thermocycler at 37° C. for 60 min, 95° C. for 5 min, and 4° C. until the plate is removed from the thermocycler. Upon removal, if not used immediately, the plate was frozen at −20° C.
A series of probes and primers were used to detect the various mRNA transcripts of the genes of NGFβ, BDNF and GAPDH in human cell lines. All the Taqman probes and primers for the experiments here-in described were supplied as pre-validated sets by Applied Biosystems, Inc. (see Table 3). The assays were performed on an ABI 7900 instrument, according to the manufacturer's instructions. […]

Substance: 25411-DC: siNA duplex, NGFβ target site 101; sense B uccGGAcccAAuAAcAGuu TTB (SEQ ID NO: 47), antisense AACuGuuAuuGGGuccGGAUU (SEQ ID NO: 48) (sense UCCGGACCCAAUAACAGUUTT; antisense AACUGUUAUUGGGUCCGGAUU; sense: DNA at AGT, 2'-fluoro at CU, [invAb] at 5' end, 3' end, backbone not given here; antisense: sugars from the 5' end rrrfmffmffmmmfffmmmmm, backbone not given here)
- % KD in CaLu-1 Cells: 54%

Substance: 25402-DC: siNA duplex, NGFβ target site 651; sense B GAGAGGuGAAcAuuAAcAA TTB (SEQ ID NO: 29), antisense UUGuuAAuGuucAccucucUU (SEQ ID NO: 30) (sense GAGAGGUGAACAUUAACAATT; antisense UUGUUAAUGUUCACCUCUCUU; sense: DNA at AGT, 2'-fluoro at CU, [invAb] at 5' end, 3' end, backbone not given here; antisense: sugars from the 5' end rrrffmmfmfffmffffffmm, backbone not given here)
- % KD in CaLu-1 Cells: 53%

Substance: 25418-DC: siNA duplex, NGFβ target site 650; sense B GGAGAGGuGAAcAuuAAcA TTB (SEQ ID NO: 61), antisense UGUuAAuGuucAccucuccUU (SEQ ID NO: 62) (sense GGAGAGGUGAACAUUAACATT; antisense UGUUAAUGUUCACCUCUCCUU; sense: DNA at AGT, 2'-fluoro at CU, [invAb] at 5' end, 3' end, backbone not given here; antisense: sugars from the 5' end rrrfmmfmfffmfffffffmm, backbone not given here)
- % KD in CaLu-1 Cells: 26%

Substance: 25404-DC: siNA duplex, NGFβ target site 43; sense B cAGuGGucGuGcAGuccAA TTB (SEQ ID NO: 33), antisense UUGGAcuGcAcGAccAcuGUU (SEQ ID NO: 34) (sense CAGUGGUCGUGCAGUCCAATT; antisense UUGGACUGCACGACCACUGUU; sense: DNA at AGT, 2'-fluoro at CU, [invAb] at 5' end, 3' end, backbone not given here; antisense: sugars from the 5' end rrrmmffmfmfmmffmffmmm, backbone not given here)
- % KD in CaLu-1 Cells: 33%

Substance: 25415-DC: siNA duplex, NGFβ target site 609; sense B ccAccGccAcAGAcAucAA TTB (SEQ ID NO: 55), antisense UUGAuGucuGuGGcGGuGGUU (SEQ ID NO: 56) (sense CCACCGCCACAGACAUCAATT; antisense UUGAUGUCUGUGGCGGUGGUU; sense: DNA at AGT, 2'-fluoro at CU, [invAb] at 5' end, 3' end, backbone not given here; antisense: sugars from the 5' end rrrmfmfffmfmmfmmfmmmm, backbone not given here)
- % KD in CaLu-1 Cells: 61%

Substance: 25426-DC: siNA duplex, NGFβ target site 676; sense B AuucAAAcAGuAcuuuuuu TTB (SEQ ID NO: 77), antisense AAAAAAGuAcuGuuuGAAuUU (SEQ ID NO: 78) (sense AUUCAAACAGUACUUUUUUTT; antisense AAAAAAGUACUGUUUGAAUUU; sense: DNA at AGT, 2'-fluoro at CU, [invAb] at 5' end, 3' end, backbone not given here; antisense: sugars from the 5' end rrrmmmmfmffmfffmmmfmm, backbone not given here)
- % KD in CaLu-1 Cells: 38%

Substance: 25405-DC: siNA duplex, NGFβ target site 124; sense B cAAGGGAGcAGcuuucuAu TTB (SEQ ID NO: 35), antisense AUAGAAAGcuGcucccuuGUU (SEQ ID NO: 36) (sense CAAGGGAGCAGCUUUCUAUTT; antisense AUAGAAAGCUGCUCCCUUGUU; sense: DNA at AGT, 2'-fluoro at CU, [invAb] at 5' end, 3' end, backbone not given here; antisense: sugars from the 5' end rrrmmmmmffmfffffffmmm, backbone not given here)
- % KD in CaLu-1 Cells: 31%

Substance: 25409-DC: siNA duplex, NGFβ target site 468; sense B cucAGGAucuGGAcuucGA TTB (SEQ ID NO: 43), antisense UCGAAGuccAGAuccuGAGUU (SEQ ID NO: 44) (sense CUCAGGAUCUGGACUUCGATT; antisense UCGAAGUCCAGAUCCUGAGUU; sense: DNA at AGT, 2'-fluoro at CU, [invAb] at 5' end, 3' end, backbone not given here; antisense: sugars from the 5' end rrrmmmfffmmmffffmmmmm, backbone not given here)
- % KD in CaLu-1 Cells: 52%

Substance: 25407-DC: siNA duplex, NGFβ target site 518; sense B cAcAGGAGcAAGcGGucAu TTB (SEQ ID NO: 39), antisense AUGAccGcuuGcuccuGuGUU (SEQ ID NO: 40) (sense CACAGGAGCAAGCGGUCAUTT; antisense AUGACCGCUUGCUCCUGUGUU; sense: DNA at AGT, 2'-fluoro at CU, [invAb] at 5' end, 3' end, backbone not given here; antisense: sugars from the 5' end rrrmffmfffmfffffmfmmm, backbone not given here)
- % KD in CaLu-1 Cells: 47%

Substance: 25406-DC: siNA duplex, NGFβ target site 755; sense B cAcuGGAAcucAuAuuGuA TTB (SEQ ID NO: 37), antisense UACAAuAuGAGuuccAGuGUU (SEQ ID NO: 38) (sense CACUGGAACUCAUAUUGUATT; antisense UACAAUAUGAGUUCCAGUGUU; sense: DNA at AGT, 2'-fluoro at CU, [invAb] at 5' end, 3' end, backbone not given here; antisense: sugars from the 5' end rrrmmfmfmmmffffmmfmmm, backbone not given here)
- % KD in CaLu-1 Cells: 34%

Substance: 25412-DC: siNA duplex, NGFβ target site 267; sense B cccAAGcccAcuGGAcuAA TTB (SEQ ID NO: 49), antisense UUAGuccAGuGGGcuuGGGUU (SEQ ID NO: 50) (sense CCCAAGCCCACUGGACUAATT; antisense UUAGUCCAGUGGGCUUGGGUU; sense: DNA at AGT, 2'-fluoro at CU, [invAb] at 5' end, 3' end, backbone not given here; antisense: sugars from the 5' end rrrmfffmmfmmmfffmmmmm, backbone not given here)
- % KD in CaLu-1 Cells: −3%

Substance: 25428-DC: siNA duplex, NGFβ target site 677; sense B uucAAAcAGuAcuuuuuuG TTB (SEQ ID NO: 81), antisense CAAAAAAGuAcuGuuuGAAUU (SEQ ID NO: 82) (sense UUCAAACAGUACUUUUUUGTT; antisense CAAAAAAGUACUGUUUGAAUU; sense: DNA at AGT, 2'-fluoro at CU, [invAb] at 5' end, 3' end, backbone not given here; antisense: sugars from the 5' end rrrmmmmmfmffmfffmmmmm, backbone not given here)
- % KD in CaLu-1 Cells: 57%

From patent US20120004281A1, “RNA Interference Mediated Inhibition of the Nerve Growth Factor Beta Chain (NGFB) Gene Expression Using Short Interfering Nucleic Acid (siNA)” (Merck Sharp & Dohme Corp, priority 2009, published 2012)
